Measured values from ChEMBL document CHEMBL1158820, “Avrainvilloside, a 6-deoxy-6-aminoglucoglycerolipid from the green alga Avrainvillea nigricans” (J Nat Prod, 2005).

Test system: WEHI-164
Assay: Cytotoxicity against mouse WEHI164 cells
Assay type: functional, cell-based

**Q.** With `CCCCCCCCCCCCCCCCCC(=O)OC[C@H](CO[C@H]1O[C@H](CN)[C@@H](O)[C@H](O)[C@H]1O)OC(=O)CCCCCCCCCCCCCCCCC` [AVRAINVILLOSIDE] as the compound, how does the IC50 read?
**A.** > 10 µg/mL
